Series [1] in a line: Solubility of Amphotericin in standard oils (soya oil, Miglyol 812). Format: physicochemical. Conditions: oil or lipid. Here is the method: The solubility of Amphotericin in soya oil (Long-chain Triglycerides—LCT) and in Miglyol 812 (Medium-chain Triglycerides—MCT), the standard oils for most commercially available emulsions for parenteral infusion is less than 0.0001 mg/ml.
(§1) The dispersions contains the active ingredient dissolved in an amount, which is greater than that amount which is the result of the mathematical addition of its maximal solubility in each of the water phase and the oil phase of the emulsion, which “addition amount” is determined under standard conditions (20° C., standard pressure) by dissolving the maximal amount of active ingredient in the separate oil and aqueous phases (maintaining the other dissolution conditions identical) corresponding to the proportions in the dispersion (saturation concentrations).

Series [2] in a line: Additive solubility in oil and water phase versus quantity dissolved in the emulsion. Format: physicochemical. Here is the method: Preferably, the quantity of active ingredient dissolved is greater than the additive quantity by a factor of 2, more preferably 5, still more preferably 10 or even greater. The “additive quantity” is determined by dissolving the maximum possible quantity of active ingredient in the separate oily and aqueous phases (dissolving conditions being otherwise identical) corresponding to the constituents in the dispersion (saturation concentration), no further additional organic solvents being used. The dispersion according to the invention contains, in addition to the additive quantity, a superadditive quantity of dissolved active ingredient.
40 g emulsion from Example 1 consist 20% of oil (8 g) and ca. 80% of water (32 g). Thus on the basis of these solubilities, 8×0.0001 mg/ml plus 32×0.01 mg/ml, i.e. in total 0.3208 mg Amphotericin can be dissolved in 40 g emulsion components oil and water (i.e. approx. 0.008 mg/ml emulsion). In the present emulsion according to the invention 0.2 mg/ml emulsion could be incorporated (Example 1) without microscopic crystals of undissolved drug being detectable (Example 12).
Dissolved active ingredient is rapidly available. […] The solubility in water and oil phase amounts to, for example, 0.008 mg/ml in the case of Amphotericin B, the emulsion according to the invention dissolves without detectable crystals e.g. 0.2 mg/ml (Example 1). If 5 mg/ml dispersion is incorporated, the solubility is exceeded (supersaturated system).
as §1

The conditions of series [3]: oral administration; cited from earlier work.
The nature of series [4]: Solubility of Amphotericin B in water. Format: physicochemical. Particulars: for solubility: water. As to the method:
Thus the solubility of Amphotericin B in water is less than 0.001% (<0.01 mg/ml) at pH 6-7, i.e. the pH value of the emulsion. It is true that the solubility of Amphotericin is higher with pH 2 and pH 11 (0.1 mg/ml), however these solutions cannot be administered intravenously.
as §1

Structures are written as SMILES. In brackets after ≈: the same amount, converted by molar mass.

In general, solubility refers to how much of the substance goes into solution per volume.

In the case of `C[C@@H]1[C@H](O)[C@@H](C)/C=C/C=C/C=C/C=C/C=C/C=C/C=C/[C@H](O[C@@H]2O[C@H](C)[C@@H](O)[C@H](N)[C@@H]2O)C[C@@H]2O[C@](O)(C[C@@H](O)C[C@@H](O)[C@H](O)CC[C@@H](O)C[C@@H](O)CC(=O)O[C@H]1C)C[C@H](O)[C@H]2C(=O)O` [Amphotericin B], the solubility was below 0.1 µg/mL in series [1] (Miglyol 812 (medium-chain triglycerides, MCT), read-out: solubility in Miglyol 812 (Medium-chain Triglycerides, MCT)); below 0.1 µg/mL in series [1] (soya oil (long-chain triglycerides, LCT), read-out: solubility in soya oil (Long-chain Triglycerides, LCT)); around 8 µg/mL (≈ 8.66 µM) in series [2] (20 °C, oil or lipid, per ml emulsion, calculated from the separate solubilities); 100 µg/mL (≈ 108 µM) in series [4] (pH 2, aqueous buffer, read-out: solubility); 100 µg/mL (≈ 108 µM) in series [4] (pH 11, aqueous buffer, read-out: solubility); below 10 µg/mL in series [4] (pH 6-7, the pH value of the emulsion, read-out: solubility in water). In addition, the “quantity that can be dissolved in 40 g emulsion components oil and water” value in series [2] (8 g oil plus 32 g water, calculated from the separate solubilities) is given as 0.3208 mg. For the same compound, the “quantity dissolved in the emulsion without detectable crystals” value in series [2] (emulsion according to the invention (Example 1), Lipofundin N 20%) turned out to be 0.2 mg/mL. Besides, in series [2] (per ml emulsion, calculated from the separate solubilities), the “solubility in water and oil phase (additive quantity)” value was 8 µg/mL (≈ 8.66 µM). Moreover, in series [3], the bioavailability entry is given as “almost zero”. In addition, the solubility in water result in series [4] (pH 6-7, the pH value of the emulsion) was “less than 0.001%”.

(Values after patent publication US7744909B2, “Dispersions for the formulation of slightly or poorly soluble agents” (Abbott GmbH & Co., KG, priority 2000, dated 2010).)
